Earlier results, collected in patent publication US9463220B2, “Method for inducing twin calving” (China Agricultural University, priority 2013, dated 2016).

Tested on: cow
Details: small doses of FSH with estrus synchronization 13 days before and aspiration of more than 3 large follicles on day 7

## follicle-stimulating hormone [FSH]
  rate of 2-3 ovulations: 90%
